Reference: ChEMBL document CHEMBL1201862, “PubChem BioAssay data set” (2004)
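These data come from cells grown in 96-well plates and exposed to compound for 48 hours at five concentrations. GI50 marks 50% less growth.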 Calls of active or inactive are those of the source. No stated cut-off is given here; in the data, active = GI50 up to about 1.1 µM and inactive = higher. Where a SMILES comes first, the peptide text is derived from it. The star is where a group is joined. Boc = CC(C)(C)OC(=O)*

Key:
Experiment in all cases: NCI anticancer screen, dose series, 48 h
HL-60 = system: HL-60
HOP-62 = system: HOP-62
786-0 = system: 786-0
ACHN = system: ACHN
IGROV-1 = system: IGROV-1
OVCAR-4 = system: OVCAR-4
TK-10 = system: TK-10
BT-549 = system: BT-549
PC-3 = system: PC-3
SF-268 = system: SF-268
A498 = system: A498
MDA-N = system: MDA-N
SK-MEL-2 = system: SK-MEL-2
NCI/ADR-RES = system: NCI/ADR-RES
MDA-MB-231 = system: MDA-MB-231
HOP-92 = system: HOP-92
M14 = system: M14

SMILES | GI50 (HL-60) | GI50 (HOP-62) | GI50 (786-0) | GI50 (ACHN) | GI50 (IGROV-1) | GI50 (OVCAR-4) | GI50 (TK-10) | GI50 (BT-549) | GI50 (PC-3) | GI50 (SF-268) | GI50 (A498) | GI50 (MDA-N) | GI50 (SK-MEL-2) | GI50 (NCI/ADR-RES) | GI50 (MDA-MB-231) | GI50 (HOP-92) | GI50 (M14)
COc1ccc(Nc2nc3cc(C(F)(F)F)ccc3nc2C(=O)O)cc1 | 19.9 µM (inactive) | 14.9 µM (inactive) | 17.5 µM (inactive) | 28.3 µM (inactive) | 24 µM (inactive) | 27.3 µM (inactive) | 34.4 µM (inactive) | 14.4 µM (inactive) | 20.4 µM (inactive) | 17.6 µM (inactive) | 15.1 µM (inactive) | 31 µM (inactive) | 14.5 µM (inactive) | 23.1 µM (inactive) | 31.6 µM (inactive) |  | 
CN1CCN(c2ccc3nc(C4=C(O)C(=O)c5c(nc(CO)n5C)C4=O)[nH]c3n2)CC1 | > 100 µM (inactive) | > 100 µM (inactive) | > 100 µM (inactive) | > 100 µM (inactive) | > 100 µM (inactive) | > 100 µM (inactive) |  | > 100 µM (inactive) | > 100 µM (inactive) | > 100 µM (inactive) |  |  | 55.1 µM (inactive) | > 100 µM (inactive) | > 100 µM (inactive) | > 100 µM (inactive) | > 100 µM (inactive)
Cc1ccc(CC(=O)Nc2ccc(NC(=O)/C=C/NC(=O)/C=C/c3ccc(-c4ccccc4)cc3)cc2C(=O)c2ccccc2)cc1 | 16.9 µM (inactive) | 2.11 µM (inactive) | 1.6 µM (inactive) | 3.08 µM (inactive) | 0.975 µM (active) | 1.48 µM (inactive) | 2.78 µM (inactive) | 1.46 µM (inactive) | 1.47 µM (inactive) | 2.62 µM (inactive) | 2.31 µM (inactive) | 2.5 µM (inactive) | 1.89 µM (inactive) | 5.41 µM (inactive) | 1.87 µM (inactive) |  | 2.56 µM (inactive)
Cc1cnc2[nH]c(-c3cccc(Cl)c3)cc(=O)c2c1 | < 0.0176 µM (active) | 0.0282 µM (active) | 0.0547 µM (active) | 0.507 µM (active) | 0.292 µM (active) | > 100 µM (inactive) | 22.8 µM (inactive) | 2.54 µM (inactive) |  | 0.0796 µM (active) | 0.0556 µM (active) |  | 0.0889 µM (active) | 0.054 µM (active) | 0.0569 µM (active) | > 100 µM (inactive) | 0.0406 µM (active)
O=C(O)CSc1n[nH]c(=O)[nH]c1=O | > 100 µM (inactive) | > 100 µM (inactive) | > 100 µM (inactive) | > 100 µM (inactive) | > 100 µM (inactive) | > 100 µM (inactive) |  | > 100 µM (inactive) | > 100 µM (inactive) | > 100 µM (inactive) | > 100 µM (inactive) | > 100 µM (inactive) | > 100 µM (inactive) | > 100 µM (inactive) | > 100 µM (inactive) |  | > 100 µM (inactive)
O=S(=O)(NC(c1ccccc1)(c1cc2ccccc2[nH]1)c1cc2ccccc2n1S(=O)(=O)c1ccccc1)c1ccccc1 (centres undefined) | > 100 µM (inactive) | > 100 µM (inactive) | > 100 µM (inactive) |  | > 100 µM (inactive) | > 100 µM (inactive) | > 100 µM (inactive) | > 100 µM (inactive) | > 100 µM (inactive) | > 100 µM (inactive) | > 100 µM (inactive) |  | 28.9 µM (inactive) | > 100 µM (inactive) | > 100 µM (inactive) | > 100 µM (inactive) | 62.2 µM (inactive)
Cc1ccc(-c2nc(Cc3n[nH]c(-c4ccc(C)cc4)n3)n[nH]2)cc1 |  | 29 µM (inactive) | > 100 µM (inactive) | 6.38 µM (inactive) | > 100 µM (inactive) | 3.75 µM (inactive) | > 100 µM (inactive) | > 100 µM (inactive) | > 100 µM (inactive) | 6.14 µM (inactive) |  | > 100 µM (inactive) | > 100 µM (inactive) | 29.6 µM (inactive) | > 100 µM (inactive) | > 100 µM (inactive) | > 100 µM (inactive)
O=C1c2ccccc2C(=O)N1CCc1nc(-c2ccccc2)c[nH]1 | > 100 µM (inactive) | > 100 µM (inactive) | > 100 µM (inactive) | > 100 µM (inactive) | > 100 µM (inactive) | > 100 µM (inactive) | > 100 µM (inactive) | > 100 µM (inactive) | > 100 µM (inactive) | > 100 µM (inactive) | > 100 µM (inactive) | > 100 µM (inactive) | > 100 µM (inactive) | > 100 µM (inactive) | > 100 µM (inactive) |  | > 100 µM (inactive)
O=C1C(NCCF)=C(Cl)C(=O)c2ncccc21 | 0.413 µM (active) | 1.47 µM (inactive) | 1.19 µM (inactive) | 1.53 µM (inactive) | 1.39 µM (inactive) |  | 1.81 µM (inactive) | 1.49 µM (inactive) | 1.29 µM (inactive) | 1.5 µM (inactive) | 1.63 µM (inactive) |  | 0.179 µM (active) |  | 2.19 µM (inactive) | 2.08 µM (inactive) | 0.869 µM (active)
COC(=O)C(Cc1c[nH]c2ccccc12)NC(=O)C(Cc1c[nH]c2ccccc12)NC(=O)C(Cc1c[nH]c2ccccc12)NC(=O)C(Cc1c[nH]c2ccccc12)NC(=O)C(Cc1c[nH]c2ccccc12)NC(=O)C(Cc1c[nH]c2ccccc12)NC(=O)C(Cc1c[nH]c2ccccc12)NC(=O)C(Cc1c[nH]c2ccccc12)NC(=O)OC(C)(C)C (centres undefined) (Boc-WWWWWWWW-OMe; configuration not given here) | 24.8 µM (inactive) | > 100 µM (inactive) | > 100 µM (inactive) | > 100 µM (inactive) | 19.8 µM (inactive) | > 100 µM (inactive) | 34 µM (inactive) | > 100 µM (inactive) | 65.5 µM (inactive) | > 100 µM (inactive) | 20 µM (inactive) | 39.1 µM (inactive) | 33.6 µM (inactive) |  | > 100 µM (inactive) |  | 12.6 µM (inactive)
COc1cc(OC)c2c(c1OC)OCC(Cc1ccc(O)cc1)C2=O (centres undefined) | 11.3 µM (inactive) | > 25 µM (inactive) | > 25 µM (inactive) | > 25 µM (inactive) | > 25 µM (inactive) | > 25 µM (inactive) | > 25 µM (inactive) |  | > 25 µM (inactive) | > 25 µM (inactive) | > 25 µM (inactive) | > 25 µM (inactive) | > 25 µM (inactive) | > 25 µM (inactive) | > 25 µM (inactive) |  | > 25 µM (inactive)
COc1cc(C(c2cccc3ccccc23)N2C(=O)CCC2C(=O)NCc2ccccc2)cc(OC)c1OC (centres undefined) | 57.7 µM (inactive) | > 100 µM (inactive) | > 100 µM (inactive) |  | > 100 µM (inactive) | > 100 µM (inactive) |  | > 100 µM (inactive) |  | > 100 µM (inactive) | > 100 µM (inactive) | > 100 µM (inactive) | > 100 µM (inactive) | > 100 µM (inactive) | > 100 µM (inactive) | > 100 µM (inactive) | > 100 µM (inactive)
Cc1nn(C(=O)Cc2ccccc2)c2c1C(c1ccccc1[N+](=O)[O-])SC(=N)N2 (centres undefined) | > 100 µM (inactive) | > 100 µM (inactive) | > 100 µM (inactive) | > 100 µM (inactive) | > 100 µM (inactive) |  | > 100 µM (inactive) | > 100 µM (inactive) | > 100 µM (inactive) | > 100 µM (inactive) | > 100 µM (inactive) | > 100 µM (inactive) |  |  | > 100 µM (inactive) |  | > 100 µM (inactive)
O=C1CCc2cc3c(cc21)C(C(=O)O)CC3 (centres undefined) | > 100 µM (inactive) | > 100 µM (inactive) | > 100 µM (inactive) | > 100 µM (inactive) | > 100 µM (inactive) | > 100 µM (inactive) | > 100 µM (inactive) | > 100 µM (inactive) | > 100 µM (inactive) | > 100 µM (inactive) |  | > 100 µM (inactive) | > 100 µM (inactive) | > 100 µM (inactive) | > 100 µM (inactive) |  | > 100 µM (inactive)
CCOC(=O)c1c(NC(=O)c2ccccc2)c(C#N)c2n1CCCCC2 | > 100 µM (inactive) | > 100 µM (inactive) | > 100 µM (inactive) | > 100 µM (inactive) | > 100 µM (inactive) | > 100 µM (inactive) | > 100 µM (inactive) |  | > 100 µM (inactive) | > 100 µM (inactive) |  | > 100 µM (inactive) |  | > 100 µM (inactive) | > 100 µM (inactive) | > 100 µM (inactive) | > 100 µM (inactive)
COc1ccc(/C=C2\OC(=O)C(Cl)=C2c2ccc(OC)cc2)cc1 | > 100 µM (inactive) | 28 µM (inactive) | 45.6 µM (inactive) | > 100 µM (inactive) | > 100 µM (inactive) | 86.9 µM (inactive) | 84.5 µM (inactive) | 99.5 µM (inactive) | 63 µM (inactive) | 40.4 µM (inactive) | > 100 µM (inactive) | > 100 µM (inactive) | > 100 µM (inactive) |  | > 100 µM (inactive) | 14 µM (inactive) | > 100 µM (inactive)
C(/Cc1ccc2c(c1)OCO2)=N\N=C1NCCN1 | 89.1 µM (inactive) | 56.1 µM (inactive) | > 100 µM (inactive) | > 100 µM (inactive) | > 100 µM (inactive) | > 100 µM (inactive) | 61.7 µM (inactive) | 91.2 µM (inactive) | 71.3 µM (inactive) | > 100 µM (inactive) | 18.8 µM (inactive) |  | > 100 µM (inactive) | > 100 µM (inactive) | > 100 µM (inactive) | 34.8 µM (inactive) | > 100 µM (inactive)
C=CCOCn1ccc(N)nc1=O | > 100 µM (inactive) | > 100 µM (inactive) | > 100 µM (inactive) |  | > 100 µM (inactive) |  | > 100 µM (inactive) | > 100 µM (inactive) | > 100 µM (inactive) | > 100 µM (inactive) |  | > 100 µM (inactive) |  |  | > 100 µM (inactive) |  | > 100 µM (inactive)
